Converted amounts (≈) assume the structure as drawn. Like-named read-outs stand apart in the source and are kept apart here.
Assays:
[1] = test system: C. difficile strains used in this study; test: MIC by broth microdilution, range over the strains used in this study; type: cell-based; conditions: Clostridioides difficile, read-out: MICs
Protocol: (§1) Susceptibility testing: The minimum inhibitory concentration (MIC), defined as the lowest concentration of an antimicrobial that will inhibit the visible growth of a microorganism, was determined for all isolates. […] Microwell plates containing omadacycline and BHI were used on the same day as their creation, and all media were reduced for 24 h prior. Media used to inoculate plates were created by suspending 24-h colonies in BHI to a McFarland standard of 0.5, which was added to each well, sufficient to about 1×10^6 CFU/ml. A total volume of […] was used, and plates were read after 24 h of incubation in the anaerobic hood. The lowest concentration without growth was determined to be the MIC. In accordance with CLSI recommendations, C. difficile ATCC 700057 was used as a control for each plate.

[2] = test system: C. difficile ATCC 1870 vegetative cells; test: Time-kill curves, T-CFU versus S-CFU, ATCC 1870; type: cell-based, Clostridioides difficile
[3] = test system: C. difficile VPI 10463 (ATCC 43255); test: MIC by broth microdilution, VPI 10463; type: cell-based; conditions: Clostridioides difficile
Protocol: as §1

[4] = test system: C. difficile ICCD 0715 (clinical strain); test: MIC by broth microdilution, ICCD 0715; type: cell-based; conditions: Clostridioides difficile, 24 h
Protocol: as §1

[5] = test system: C. difficile 630 (ATCC BAA-1382); test: MIC by broth microdilution, 630; type: cell-based; conditions: Clostridioides difficile
Protocol: as §1

[6] = cited from earlier work; for Fecal concentration: clinical dosing, oral
[7] = test system: C. difficile spores (four strains tested); test: Time-kill curves, S-CFU, four strains tested; type: cell-based, Clostridioides difficile
C. difficile VPI 10463 [8] = test: CDI murine model, non-severe model; type: in vivo, C57BL/6 mice
C. difficile VPI 10463 [9] = test: CDI murine model, severe model; type: in vivo, C57BL/6 mice
[10] = test system: C. difficile 4118 (ATCC 1870); test: MIC by broth microdilution, ATCC 1870; type: cell-based; conditions: Clostridioides difficile
Protocol: as §1

[11] = test system: C. difficile ATCC 700057 (VPI 11186); test: MIC by broth microdilution, control strain ATCC 700057; type: cell-based, Clostridioides difficile
Protocol: as §1

[12] = test system: C. difficile spores (all strains); test: Spore washing and germination, all strains; conditions: 0.5 mg/ml docusate exposure
[13] = ATCC 700057 (VPI 11186), R038, reduced BHI, 24 h, highest of replicates
[14] = non-severe model, environmental contamination

Compound: CN[C@H](CC(C)C)C(=O)N[C@H]1C(=O)N[C@@H](CC(N)=O)C(=O)N[C@H]2C(=O)N[C@H]3C(=O)N[C@H](C(=O)N[C@H](C(=O)O)c4cc(O)cc(O)c4-c4cc3ccc4O)[C@H](O)c3ccc(c(Cl)c3)Oc3cc2cc(c3O[C@@H]2O[C@H](CO)[C@@H](O)[C@H](O)[C@H]2O[C@H]2C[C@](C)(N)[C@H](O)[C@H](C)O2)Oc2ccc(cc2Cl)[C@H]1O [Vancomycin, vancomycin]
- MIC [1]: 1 to 4 µg/mL (≈ 0.69 to 2.76 µM)
- Killing of vegetative cells (T-CFU equaled S-CFU) [2]: effective at killing vegetative cells
- MIC ([3]; ATCC43255, 24 h): 1 µg/mL (≈ 0.69 µM)
- MIC [4]: 4 µg/mL (≈ 2.76 µM)
- MIC ([5]; ATCCBAA1382, 24 h): 4 µg/mL (≈ 2.76 µM)
- Fecal concentration [6]: 2,000 mg/liter
- Effect on S-CFU [7]: did not affect S-CFU
- Clinical scoring and weight loss (disease) (C. difficile VPI 10463 [8]; mouse, in vivo): more disease
- Final survival (C. difficile VPI 10463 [8]; mouse, in vivo): 60%
- Final survival, survivors/total mice (C. difficile VPI 10463 [8]; mouse, in vivo): 6/10
- Mice positive for C. difficile spores (spore shedding), day 15 (C. difficile VPI 10463 [8]; mouse, in vivo): 100%
- Mice succumbed to rCDI (C. difficile VPI 10463 [8]; mouse, in vivo): 20%
- Mortality (C. difficile VPI 10463 [8]; mouse, in vivo): 40%
- Positive cage swab rate, day 10 (C. difficile VPI 10463 [8]; mouse, in vivo): 8.3%
- Positive cage swabs, day 13 (C. difficile VPI 10463 [8]; mouse, in vivo): 25%
- Toxin amounts, day 10 and 13 (C. difficile VPI 10463 [8]; mouse, in vivo): higher
- Median toxin A and B production, day 2 (C. difficile VPI 10463 [9]; mouse, in vivo): significantly higher
- Toxin amounts, day 1 (C. difficile VPI 10463 [9]; mouse, in vivo): similar
- Weight loss and clinical scoring (C. difficile VPI 10463 [9]; mouse, in vivo): higher
- Day 15 survival (C. difficile VPI 10463 [9]; mouse, in vivo, po): 13.3%
- MIC ([10]; ATCC1870, 24 h): 2 µg/mL (≈ 1.38 µM)
- MIC [11, 13]: 2 µg/mL (≈ 1.38 µM)
- MIC ([11]; Clostridioides difficile, ATCC700057, 24 h): 2 µg/mL (≈ 1.38 µM)

Compound: CN(C)c1cc(CNCC(C)(C)C)c(O)c2c1C[C@H]1C[C@H]3[C@H](N(C)C)C(O)=C(C(N)=O)C(=O)[C@@]3(O)C(O)=C1C2=O [Omadacycline, omadacycline]
- MIC ([1]; range for the strains used in this study): 0.031 to 0.125 µg/mL (≈ 0.0557 to 0.225 µM)
- Killing of vegetative cells (T-CFU equaled S-CFU) ([2]; ATCC 1870, 24 to 96 h, with or without germinants): effective at killing vegetative cells
- MIC ([3]; ATCC43255, VP1 10463 (ATCC 43255), R087, reduced BHI, 24 h, read-out: MIC): 0.063 µg/mL (≈ 0.113 µM)
- MIC ([4]; ICCD 0715 (clinical strain), R027, reduced BHI, read-out: MIC): 0.031 µg/mL (≈ 0.0557 µM)
- MIC ([5]; ATCCBAA1382, 630 (ATCC BAA-1382), R012, reduced BHI, 24 h, read-out: MIC): 0.125 µg/mL (≈ 0.225 µM)
- Fecal concentration [6]: approximately 430 mg/liter
- Fecal excretion ([6]; in vivo): 81%
- Effect on S-CFU ([7]; antibiotic in BHI without germinants, throughout the treatment period (96 h), four strains): did not affect S-CFU
- Mice succumbed to rCDI (C. difficile VPI 10463 [8]; by day 10): 20%
- Final survival, survivors/total mice (C. difficile VPI 10463 [8]; mouse, in vivo): 6/10
- Mortality (C. difficile VPI 10463 [8]; mouse, in vivo): 40%
- Mice positive for C. difficile spores (spore shedding), day 15 (C. difficile VPI 10463 [8]; non-severe model): 60%
- Final survival (C. difficile VPI 10463 [8]; non-severe model, after clindamycin-induced relapse (days 10-12)): 60%
- Positive cage swab rate, day 10 (C. difficile VPI 10463 [8]; [14]): 8.3%
- Positive cage swabs, day 13 (C. difficile VPI 10463 [8]; [14]): no positive swabs
- Toxin amounts, day 1 (C. difficile VPI 10463 [9]; mouse, in vivo): similar
- Day 15 survival (C. difficile VPI 10463 [9]; severe model, treatment started 30 hours after spore gavage, once daily until day 5, OMC 0.25 mg, VAN 1.5 mg oral gavage): 60%
- MIC ([10]; ATCC1870, 4118 (ATCC 1870), R027, reduced BHI, 24 h, read-out: MIC): 0.031 µg/mL (≈ 0.0557 µM)
- MIC [11, 13]: 0.125 µg/mL (≈ 0.225 µM)
- MIC ([11]; Clostridioides difficile, ATCC700057, ATCC 700057 (VPI 11186), R038, reduced BHI, 24 h, highest of replicates, read-out: MIC): 0.125 µg/mL (≈ 0.225 µM)

Compound: CCCCC(CC)COC(=O)CC(C(=O)OCC(CC)CCCC)S(=O)(=O)O (centres unmarked) [docusate]
- Percent germination compared to all other treatments [12]: highest percent germination

— US12115170B2, “Compositions and methods of clostridiodides difficile treatment, decolonization, and prevention” (Wisconsin Alumni Research Foundation, priority 2021, dated 2024)
